From US20230398130A1, “METHODS AND COMPOSITIONS FOR DIFFERENTIATING STEM CELLS” (Massachusetts Institute of Technology, priority 2020, published 2023) come the findings set out here.

In test [1] the test system is ISC-enriched organoids. As to the kind of experiment: Primary screen, 384-well 2.5-D organoid differentiation (ENR+CD, 6 days): basal lysozyme secretion (LYZ.NS). The format is cell-based, murine. To be noted: for Dose.FC.LYZ.NS: FC vs plate median; for Z.LYZ.NS: standard z score of FC. From the text:
(§1) High-throughput screening.

In test [2] the test system is ISC-enriched organoids. As to the kind of experiment: Primary screen, 384-well 2.5-D organoid differentiation (ENR+CD, 6 days): carbachol-induced lysozyme secretion (LYZ.S). The format is cell-based, murine. The following applies: FC vs plate median.
Excerpt: as §1

For test [3], the system named is ISC-enriched organoids. As to the kind of experiment: Primary screen, 384-well 2.5-D organoid differentiation (ENR+CD, 6 days, Target Selective Inhibitor Library, vs whole-plate median): ATP (CellTiter-Glo 3D, CTG). The following applies: for Dose.FC.CTG: FC vs plate median; for Z.CTG: standard z score of FC.
Setting [4] is: primary screen, dose 0.08 uM, ENR+CD 6 days.
Setting [5] is: primary screen, dose 0.40 uM, ENR+CD 6 days.
Setting [6] is: primary screen, dose 2.00 uM, ENR+CD 6 days.
Where [7] appears, read: primary screen, dose 10.00 uM, ENR+CD 6 days.

For `COc1ccnc2[nH]cc(C(=O)C(=O)N3CCN(C(=O)c4ccccc4)C[C@H]3C)c12` [BMS-378806], the Dose.FC.LYZ.NS in the test with ISC-enriched organoids [1] (setting [4]) was 0.141 log 2 fold change; with ISC-enriched organoids [1] (setting [5]) it was −0.007 log 2 fold change; in the test with ISC-enriched organoids [1] (setting [6]), −0.100 log 2 fold change; in the test with ISC-enriched organoids [1] (setting [7]) it was −0.227 log 2 fold change. The Z.LYZ.NS in the test on ISC-enriched organoids [1] (primary screen, dose 0.08 uM) was 1.231; in the test on ISC-enriched organoids [1] (primary screen, dose 0.40 uM), −0.061; in the test on ISC-enriched organoids [1] (primary screen, dose 2.00 uM), −0.870; in the test with ISC-enriched organoids [1] (primary screen, dose 10.00 uM) it was −1.977. Also, the Dose.FC.LYZ.S with ISC-enriched organoids [2] (setting [4]) was 0.159 log 2 fold change; in the test with ISC-enriched organoids [2] (setting [5]) it was 0.007 log 2 fold change; in the test with ISC-enriched organoids [2] (setting [6]) it was −0.142 log 2 fold change; with ISC-enriched organoids [2] (setting [7]) it was −0.322 log 2 fold change. The Dose.FC.CTG in the test on ISC-enriched organoids [3] (setting [4]) is reported as 0.233 log 2 fold change; with ISC-enriched organoids [3] (setting [5]), 0.102 log 2 fold change; in the test with ISC-enriched organoids [3] (setting [6]) it was −0.289 log 2 fold change; with ISC-enriched organoids [3] (setting [7]), −1.155 log 2 fold change. Besides, the Z.CTG is listed as 0.557 with ISC-enriched organoids [3] (primary screen, dose 0.08 uM); 0.243 with ISC-enriched organoids [3] (primary screen, dose 0.40 uM); −0.691 in the test with ISC-enriched organoids [3] (primary screen, dose 2.00 uM); −2.758 in the test with ISC-enriched organoids [3] (primary screen, dose 10.00 uM).
As to `O=C(Oc1cc(S(=O)(=O)c2ccccc2)ccc1[N+](=O)[O-])c1ccc(Cl)cc1` [BTB06584], the Dose.FC.LYZ.NS in the test with ISC-enriched organoids [1] (setting [4]) was 0.091 log 2 fold change; with ISC-enriched organoids [1] (setting [5]) it was 0.025 log 2 fold change; in the test on ISC-enriched organoids [1] (setting [6]), 0.024 log 2 fold change; in the test with ISC-enriched organoids [1] (setting [7]) it was −0.031 log 2 fold change. For the same compound, the Z.LYZ.NS in the test with ISC-enriched organoids [1] (primary screen, dose 0.08 uM) is recorded as 0.795; with ISC-enriched organoids [1] (primary screen, dose 0.40 uM), 0.214; in the test with ISC-enriched organoids [1] (primary screen, dose 2.00 uM), 0.206; in the test with ISC-enriched organoids [1] (primary screen, dose 10.00 uM) it was −0.268. Also, the Dose.FC.LYZ.S in the test on ISC-enriched organoids [2] (setting [4]) is 0.222 log 2 fold change; in the test with ISC-enriched organoids [2] (setting [5]) it was 0.042 log 2 fold change; with ISC-enriched organoids [2] (setting [6]) it was 0.039 log 2 fold change; in the test on ISC-enriched organoids [2] (setting [7]) it was 0.019 log 2 fold change. For the same compound, the Dose.FC.CTG is given as 0.275 log 2 fold change in the test with ISC-enriched organoids [3] (setting [4]), 0.288 log 2 fold change in the test on ISC-enriched organoids [3] (setting [5]), −0.180 log 2 fold change with ISC-enriched organoids [3] (setting [6]) and 0.199 log 2 fold change in the test on ISC-enriched organoids [3] (setting [7]). Moreover, the Z.CTG with ISC-enriched organoids [3] (primary screen, dose 0.08 uM) is listed as 0.657; in the test with ISC-enriched organoids [3] (primary screen, dose 0.40 uM), 0.688; in the test with ISC-enriched organoids [3] (primary screen, dose 2.00 uM), −0.431; with ISC-enriched organoids [3] (primary screen, dose 10.00 uM), 0.475.
As to `O=C(Nc1cccc(Nc2ncc(Br)c(NCCc3cnc[nH]3)n2)c1)N1CCCC1` [BX-912], the Dose.FC.LYZ.NS is given as 0.010 log 2 fold change with ISC-enriched organoids [1] (Dose 0.08 uM, ENR+CD, 6 days); 0.017 log 2 fold change in the test on ISC-enriched organoids [1] (Dose 0.40 uM, ENR+CD, 6 days); −0.089 log 2 fold change in the test with ISC-enriched organoids [1] (Dose 2.00 uM, ENR+CD, 6 days); −0.196 log 2 fold change in the test with ISC-enriched organoids [1] (Dose 10.00 uM, ENR+CD, 6 days). In addition, the Z.LYZ.NS in the test on ISC-enriched organoids [1] (Dose 0.08 uM) is listed as 0.090; with ISC-enriched organoids [1] (Dose 0.40 uM) it was 0.151; in the test on ISC-enriched organoids [1] (Dose 2.00 uM), −0.771; with ISC-enriched organoids [1] (Dose 10.00 uM), −1.704. For the same compound, the Dose.FC.LYZ.S was 0.038 log 2 fold change with ISC-enriched organoids [2] (Dose 0.08 uM, ENR+CD, 6 days); 0.042 log 2 fold change with ISC-enriched organoids [2] (Dose 0.40 uM, ENR+CD, 6 days); −0.161 log 2 fold change in the test with ISC-enriched organoids [2] (Dose 2.00 uM, ENR+CD, 6 days); −0.272 log 2 fold change in the test on ISC-enriched organoids [2] (Dose 10.00 uM, ENR+CD, 6 days). In addition, the Dose.FC.CTG is 0.043 log 2 fold change in the test on ISC-enriched organoids [3] (Dose 0.08 uM, ENR+CD, 6 days); 0.054 log 2 fold change with ISC-enriched organoids [3] (Dose 0.40 uM, ENR+CD, 6 days); −0.246 log 2 fold change in the test on ISC-enriched organoids [3] (Dose 2.00 uM, ENR+CD, 6 days); −0.397 log 2 fold change in the test on ISC-enriched organoids [3] (Dose 10.00 uM, ENR+CD, 6 days). The Z.CTG with ISC-enriched organoids [3] (Dose 0.08 uM) is 0.103; in the test on ISC-enriched organoids [3] (Dose 0.40 uM), 0.129; in the test on ISC-enriched organoids [3] (Dose 2.00 uM), −0.587; in the test on ISC-enriched organoids [3] (Dose 10.00 uM) it was −0.949.
In the case of `CNC(=O)[C@H](Cc1ccccc1)NC(=O)[C@H](CC(C)C)[C@H](CSc1cccs1)C(=O)NO` [Batimastat (BB-94)], the Dose.FC.LYZ.NS in the test with ISC-enriched organoids [1] (setting [4]) is −0.003 log 2 fold change; in the test on ISC-enriched organoids [1] (setting [5]) it was 0.005 log 2 fold change; in the test with ISC-enriched organoids [1] (setting [6]), 0.081 log 2 fold change; in the test with ISC-enriched organoids [1] (setting [7]) it was −0.075 log 2 fold change. Moreover, the Z.LYZ.NS is −0.025 in the test on ISC-enriched organoids [1] (primary screen, dose 0.08 uM); 0.042 in the test on ISC-enriched organoids [1] (primary screen, dose 0.40 uM); 0.707 in the test with ISC-enriched organoids [1] (primary screen, dose 2.00 uM); −0.649 in the test on ISC-enriched organoids [1] (primary screen, dose 10.00 uM). Also, the Dose.FC.LYZ.S is on record as 0.053 log 2 fold change in the test on ISC-enriched organoids [2] (setting [4]), 0.028 log 2 fold change with ISC-enriched organoids [2] (setting [5]), 0.056 log 2 fold change with ISC-enriched organoids [2] (setting [6]) and −0.107 log 2 fold change in the test on ISC-enriched organoids [2] (setting [7]). Moreover, the Dose.FC.CTG in the test with ISC-enriched organoids [3] (setting [4]) is recorded as 0.035 log 2 fold change; with ISC-enriched organoids [3] (setting [5]) it was −0.095 log 2 fold change; in the test on ISC-enriched organoids [3] (setting [6]) it was −0.049 log 2 fold change; in the test on ISC-enriched organoids [3] (setting [7]), −0.283 log 2 fold change. Besides, the Z.CTG in the test on ISC-enriched organoids [3] (primary screen, dose 0.08 uM) is 0.084; in the test on ISC-enriched organoids [3] (primary screen, dose 0.40 uM), −0.226; in the test with ISC-enriched organoids [3] (primary screen, dose 2.00 uM), −0.117; with ISC-enriched organoids [3] (primary screen, dose 10.00 uM) it was −0.676.
Consider `O=C(/C=C/c1cccc(S(=O)(=O)Nc2ccccc2)c1)NO` [Belinostat (PXD101)], for which the Dose.FC.LYZ.NS is 0.008 log 2 fold change in the test on ISC-enriched organoids [1] (setting [4]), 0.129 log 2 fold change in the test on ISC-enriched organoids [1] (setting [5]), −0.173 log 2 fold change with ISC-enriched organoids [1] (setting [6]) and −0.196 log 2 fold change in the test on ISC-enriched organoids [1] (setting [7]). In addition, the Z.LYZ.NS in the test with ISC-enriched organoids [1] (primary screen, dose 0.08 uM) is 0.067; with ISC-enriched organoids [1] (primary screen, dose 0.40 uM), 1.125; in the test with ISC-enriched organoids [1] (primary screen, dose 2.00 uM), −1.510; in the test with ISC-enriched organoids [1] (primary screen, dose 10.00 uM), −1.709. Also, the Dose.FC.LYZ.S with ISC-enriched organoids [2] (setting [4]) was −0.059 log 2 fold change; in the test on ISC-enriched organoids [2] (setting [5]) it was 0.042 log 2 fold change; with ISC-enriched organoids [2] (setting [6]), −0.264 log 2 fold change; in the test with ISC-enriched organoids [2] (setting [7]), −0.327 log 2 fold change. For the same compound, the Dose.FC.CTG is −0.227 log 2 fold change with ISC-enriched organoids [3] (setting [4]), −0.055 log 2 fold change with ISC-enriched organoids [3] (setting [5]), −0.782 log 2 fold change in the test on ISC-enriched organoids [3] (setting [6]) and −1.122 log 2 fold change in the test on ISC-enriched organoids [3] (setting [7]). The Z.CTG in the test on ISC-enriched organoids [3] (primary screen, dose 0.08 uM) is given as −0.543; with ISC-enriched organoids [3] (primary screen, dose 0.40 uM), −0.133; in the test on ISC-enriched organoids [3] (primary screen, dose 2.00 uM) it was −1.868; in the test on ISC-enriched organoids [3] (primary screen, dose 10.00 uM) it was −2.679.
Consider `CC(C)C[C@H](NC(=O)[C@@H](NC(=O)c1cccc(-c2ccccc2)n1)[C@@H](C)O)B(O)O` [CEP-18770 (Delanzomib)], for which the Dose.FC.LYZ.NS in the test on ISC-enriched organoids [1] (Dose 0.08 uM, ENR+CD, 6 days) was −0.108 log 2 fold change; in the test on ISC-enriched organoids [1] (Dose 0.40 uM, ENR+CD, 6 days), −0.076 log 2 fold change; with ISC-enriched organoids [1] (Dose 2.00 uM, ENR+CD, 6 days) it was −0.063 log 2 fold change; in the test on ISC-enriched organoids [1] (Dose 10.00 uM, ENR+CD, 6 days) it was −0.035 log 2 fold change. Further, the Z.LYZ.NS in the test with ISC-enriched organoids [1] (Dose 0.08 uM) is listed as −0.937; in the test on ISC-enriched organoids [1] (Dose 0.40 uM) it was −0.664; in the test with ISC-enriched organoids [1] (Dose 2.00 uM), −0.546; in the test on ISC-enriched organoids [1] (Dose 10.00 uM), −0.308. Further, the Dose.FC.LYZ.S in the test on ISC-enriched organoids [2] (Dose 0.08 uM, ENR+CD, 6 days) is on record as −0.179 log 2 fold change; in the test with ISC-enriched organoids [2] (Dose 0.40 uM, ENR+CD, 6 days), −0.159 log 2 fold change; in the test on ISC-enriched organoids [2] (Dose 2.00 uM, ENR+CD, 6 days) it was −0.180 log 2 fold change; in the test with ISC-enriched organoids [2] (Dose 10.00 uM, ENR+CD, 6 days) it was −0.149 log 2 fold change. The Dose.FC.CTG is given as −0.953 log 2 fold change with ISC-enriched organoids [3] (Dose 0.08 uM, ENR+CD, 6 days); −1.642 log 2 fold change in the test with ISC-enriched organoids [3] (Dose 0.40 uM, ENR+CD, 6 days); −0.990 log 2 fold change in the test with ISC-enriched organoids [3] (Dose 2.00 uM, ENR+CD, 6 days); −1.148 log 2 fold change in the test on ISC-enriched organoids [3] (Dose 10.00 uM, ENR+CD, 6 days). Further, the Z.CTG in the test with ISC-enriched organoids [3] (Dose 0.08 uM) was −2.276; with ISC-enriched organoids [3] (Dose 0.40 uM), −3.923; in the test on ISC-enriched organoids [3] (Dose 2.00 uM), −2.364; with ISC-enriched organoids [3] (Dose 10.00 uM) it was −2.742.
